The NIST ThermoML archive (doi:10.1021/je500512f)

Test: molar heat capacity at constant pressure
Conditions: Liquid, Twin Calvet

COC [dimethyl ether]
molar heat capacity at constant pressure [J/K/mol]
Conditions	1460 kPa	2030 kPa	2520 kPa	2930 kPa	3540 kPa	4060 kPa	4580 kPa	5020 kPa
305.15 K	113.19	112.82	112.13	112.36	111.99	111.53	111.26	111.02
310.15 K	113.47	112.91	112.31	112.45	111.72	111.21	111.44	111.3
315.15 K	114.8	114.11	113.6	113.47	112.78	112.13	112.45	112.22
320.15 K	116.23	115.45	115.03	114.89	114.02	113.37	113.56	113.28
325.15 K	117.84	116.92	116.65	116.05	115.31	114.57	114.66	114.3
330.15 K	–	118.86	118.49	117.75	117.01	116.05	116.05	115.59
335.15 K	–	121.34	120.84	120.15	119.27	118.03	117.98	117.38
340.15 K	–	–	123.92	123.09	122.08	120.65	120.52	119.82
345.15 K	–	–	127.75	126.55	125.35	123.92	123.65	122.86
350.15 K	–	–	–	130.65	129.13	127.75	127.19	126.27
355.15 K	–	–	–	–	133.46	131.94	131.06	129.91
360.15 K	–	–	–	–	–	136.82	135.67	134.15
365.15 K	–	–	–	–	–	144.01	142.31	140.42

CC(F)F [1,1-difluoroethane]
molar heat capacity at constant pressure [J/K/mol]
Conditions	1490 kPa	2070 kPa	2540 kPa	2950 kPa	3440 kPa	4010 kPa	4600 kPa	5030 kPa
305.15 K	121	121.14	120.81	120.28	119.29	119.55	118.96	118.49
310.15 K	121.8	121.53	121.07	120.81	120.08	119.75	119.35	119.09
315.15 K	123.84	123.25	122.79	122.46	121.8	121.2	120.61	120.41
320.15 K	126.16	125.23	124.77	124.24	123.71	122.99	122.06	121.8
325.15 K	129	127.61	127.01	126.42	125.89	124.97	123.84	123.45
330.15 K	–	130.65	129.79	129.13	128.47	127.41	126.09	125.63
335.15 K	–	134.21	133.22	132.36	131.44	130.18	128.8	128.27
340.15 K	–	–	137.25	136.06	134.94	133.49	131.9	131.31
345.15 K	–	–	141.88	140.36	139.04	137.32	135.34	134.61
350.15 K	–	–	–	146.1	144.05	141.88	139.43	138.51
355.15 K	–	–	–	–	150.66	147.56	144.45	143.2
360.15 K	–	–	–	–	–	155.02	151.06	149.14
